Here are results for 39 substances from patent US10517889B2, “Modulators of SMAD7 expression” (Ionis Pharmaceuticals, Inc., priority 2017, dated 2019).

In the data set the test system is human SMAD7 mRNA. Briefly: Antisense inhibition of human SMAD7 mRNA expression in Hep3B cells by 5-10-5 MOE gapmers, single concentration, electroporation, RT-PCR (Example 1, Study 1 and 2). The format is cell-based. In outline: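 Hep3B cells (20,000/well) electroporated with 5-10-5 MOE gapmer at 5,000 nM or 15,000 nM for approximately 24 h. SMAD7 mRNA quantified by real-time PCR with primer probe set RTS5062 and normalized to RIBOGREEN total RNA. Values are percent inhibition relative to untreated controls.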

Setting [1] is: Study 2, electroporation with 15,000 nM antisense oligonucleotide, 5-10-5 MOE gapmers targeting SEQ ID NO: 1 and 2.
Setting [2] is: electroporation, 5,000 nM, approximately 24 hours, relative to untreated control cells, gapmers targeting SEQ ID NO: 1 and 2.
Setting [3] is: electroporation, 15,000 nM, approximately 24 hours, relative to untreated control cells, gapmers targeting SEQ ID NO: 1 and 2.
Setting [4] is: electroporation, 15,000 nM antisense oligonucleotide (Study 2), 5-10-5 MOE gapmers targeting SEQ ID NO: 1 and 2.
[5] abbreviates: electroporation with 15,000 nM antisense oligonucleotide (Study 2), 5-10-5 MOE gapmers targeting SEQ ID NO: 1 and 2.

Strand notation (5' to 3'): a small letter for the sugar, then the base; units joined by * are phosphorothioate-linked, units joined directly phosphodiester-linked; [ ] holds rarer units or linkages, { } end groups; capitals alone tell only the bases. e = 2'-O-(2-methoxyethyl) (MOE); [5mC] = 5-methylcytosine; d = 2'-deoxy (DNA)

Turning to “771639 (antisense e[5mC]*eA*eG*e[5mC]*e[5mC]*dT*dA*dG*dG*dA*dT*dG*dG*dT*dA*e[5mC]*e[5mC]*eT*eT*eG) [compound 771639]”, under setting [1], the “% inhibition of SMAD7 mRNA expression” value stood at 51%.

As to “771755 (antisense eA*eA*eA*e[5mC]*eA*dT*dT*dT*dG*dG*d[5mC]*dA*d[5mC]*d[5mC]*d[5mC]*eA*eA*e[5mC]*eA*e[5mC]) [compound 771755]”, the “% Inhibition” value under setting [1] is recorded as 35%. The “% inhibition of SMAD7 mRNA expression” value under setting [2] is listed as 44%. As for “771917 (antisense e[5mC]*e[5mC]*eA*eG*eA*d[5mC]*d[5mC]*d[5mC]*d[5mC]*dT*dT*d[5mC]*dT*dT*dA*eA*eA*eT*eT*eT) [compound 771917]”, the “% inhibition of SMAD7 mRNA expression” value under setting [3] is 22%. As to “771731 (antisense eA*eA*eA*eA*e[5mC]*dT*dT*dT*dG*dT*dG*d[5mC]*d[5mC]*dT*dG*eT*eT*eT*e[5mC]*eA) [compound 771731]”, under setting [1], the “% Inhibition” value is on record as 54%. Moreover, under setting [2], the “% inhibition of SMAD7 mRNA expression” value is recorded as 44%. As for “771898 (antisense eG*eG*eT*eG*eT*dG*dA*dG*d[5mC]*dT*dG*dT*dG*dG*dA*e[5mC]*eA*e[5mC]*eA*eG) [compound 771898]”, under setting [4], the “% inhibition of SMAD7 mRNA expression” value is 27%. For “771745 (antisense eG*eT*eG*eA*eA*dG*dA*dA*dG*d[5mC]*dA*dA*dA*dG*dT*eA*eT*eA*e[5mC]*e[5mC]) [compound 771745]”, the “% inhibition of SMAD7 mRNA expression” value under setting [4] turned out to be 24%.

Consider “771355 (antisense e[5mC]*eA*eG*eT*eT*d[5mC]*dG*dG*d[5mC]*d[5mC]*dT*dT*d[5mC]*d[5mC]*dA*eT*e[5mC]*e[5mC]*eA*eA) [compound 771355]”, for which the “% Inhibition of SMAD7 mRNA” value under setting [5] worked out at 13%. In addition, the “% inhibition of SMAD7 mRNA expression” value under setting [4] stood at 0%.

For the substance “771940 (antisense eT*e[5mC]*e[5mC]*eT*eG*d[5mC]*dT*dG*d[5mC]*d[5mC]*d[5mC]*d[5mC]*dA*dG*d[5mC]*eA*eG*eG*e[5mC]*eT) [compound 771940]”, the “% Inhibition” value under setting [1] is 0%.

As for “771505 (antisense e[5mC]*eT*e[5mC]*eA*eG*d[5mC]*dT*d[5mC]*dA*d[5mC]*dG*d[5mC]*dT*d[5mC]*dT*eG*eT*e[5mC]*e[5mC]*e[5mC]) [compound 771505]”, the “% Inhibition of SMAD7 mRNA” value under setting [5] is 29%. Moreover, under setting [4], the “% inhibition of SMAD7 mRNA expression” value stood at 0%. For the substance “771642 (antisense eA*eG*eA*eA*eG*dA*dG*dT*dT*dA*dG*dG*dT*dG*dT*e[5mC]*eA*eG*e[5mC]*e[5mC]) [compound 771642]”, under setting [5], the “% inhibition of SMAD7 mRNA expression” value was determined as 36%. For “771357 (antisense eG*eA*eG*eT*e[5mC]*dA*dG*dG*d[5mC]*dT*d[5mC]*dA*dA*dT*dG*eA*eG*eA*e[5mC]*eT) [compound 771357]”, the “% inhibition of SMAD7 mRNA expression” value under setting [4] is 16%. As for “771548 (antisense eG*eG*eT*eG*eT*d[5mC]*d[5mC]*dT*dG*d[5mC]*d[5mC]*dG*dA*dT*d[5mC]*eA*eT*eA*e[5mC]*e[5mC]) [compound 771548]”, under setting [1], the “% inhibition of SMAD7 mRNA expression” value was determined as 19%. In the case of “771841 (antisense eT*eT*eT*eA*eG*dA*dA*dA*d[5mC]*d[5mC]*d[5mC]*dA*dG*dA*dG*eA*e[5mC]*eA*eA*eA) [compound 771841]”, the “% inhibition of SMAD7 mRNA expression” value under setting [4] is reported as 36%. In the case of “771936 (antisense eT*eG*eT*eT*eT*d[5mC]*dT*dG*dT*dG*dT*dG*d[5mC]*dA*d[5mC]*eA*eT*eA*e[5mC]*eG) [compound 771936]”, the “% Inhibition of SMAD7 mRNA” value under setting [5] stood at 32%. Under setting [4], the “% inhibition of SMAD7 mRNA expression” value came to 36%. With “771945 (antisense eT*eT*eA*eT*eG*dT*dG*dT*d[5mC]*dT*d[5mC]*dA*dA*dA*dT*eA*eG*eA*eT*eG) [compound 771945]”, under setting [4], the “% inhibition of SMAD7 mRNA expression” value came to 0%.

As to “771437 (eG*e[5mC]*e[5mC]*eT*eG*dG*dA*dG*d[5mC]*dA*dG*d[5mC]*dA*dG*d[5mC]*eT*e[5mC]*e[5mC]*eA*eG; antisense) [compound 771437]”, under setting [1], the “% Inhibition” value came to 0%. For the substance “771650 (antisense eG*eA*eA*eG*eT*dA*dT*d[5mC]*dA*dT*dA*d[5mC]*dG*dA*dG*eT*eG*eT*eA*eT) [compound 771650]”, under setting [5], the “% inhibition of SMAD7 mRNA expression” value came to 24%.

For “771840 (antisense eA*eG*eA*eT*eG*d[5mC]*dT*dT*d[5mC]*dT*dA*dG*dG*dT*dG*eA*eA*e[5mC]*e[5mC]*eA) [compound 771840]”, the “% Inhibition of SMAD7 mRNA” value under setting [5] is given as 30%. The “% inhibition of SMAD7 mRNA expression” value under setting [4] is reported as 16%. Regarding “771562 (antisense eA*e[5mC]*eA*e[5mC]*eA*d[5mC]*dA*d[5mC]*dT*d[5mC]*d[5mC]*dT*dG*dA*d[5mC]*eA*eA*eG*eT*eG) [compound 771562]”, under setting [4], the “% inhibition of SMAD7 mRNA expression” value came to 30%. Consider “771377 (antisense eT*eA*eA*eG*e[5mC]*dA*d[5mC]*dG*d[5mC]*dT*d[5mC]*dT*dA*dA*dA*e[5mC]*eA*eG*e[5mC]*eA) [compound 771377]”, for which the “% Inhibition” value under setting [1] amounted to 0%.

“771363 (antisense eT*e[5mC]*eA*eG*eG*d[5mC]*dT*dT*d[5mC]*dA*d[5mC]*dT*dG*d[5mC]*d[5mC]*e[5mC]*eA*eT*e[5mC]*eG) [compound 771363]”: the “% Inhibition of SMAD7 mRNA” value under setting [5] is listed as 35%. For the same substance, the “% inhibition of SMAD7 mRNA expression” value under setting [4] was 12%. Consider “771549 (antisense e[5mC]*e[5mC]*eT*e[5mC]*eT*dT*d[5mC]*d[5mC]*dT*dA*dT*d[5mC]*dA*dG*dG*eG*eT*eG*eT*e[5mC]) [compound 771549]”, for which the “% inhibition of SMAD7 mRNA expression” value under setting [3] turned out to be 49%.

With “771827 (antisense eA*eA*eG*eG*eA*d[5mC]*dA*dT*d[5mC]*dA*d[5mC]*dA*dG*dG*dG*eA*e[5mC]*eT*eG*eG) [compound 771827]”, the “% Inhibition” value under setting [1] was 33%. For the same substance, under setting [2], the “% inhibition of SMAD7 mRNA expression” value is 31%.

As to “771362 (antisense eG*eT*eA*eA*eG*dA*d[5mC]*dA*dG*dA*d[5mC]*d[5mC]*dA*d[5mC]*dA*eG*e[5mC]*eA*e[5mC]*e[5mC]) [compound 771362]”, the “% Inhibition” value under setting [1] came out at 15%.

Take “771846 (antisense e[5mC]*eA*eT*eA*eT*dT*dT*dG*d[5mC]*dT*d[5mC]*d[5mC]*dA*dT*dA*eA*eA*e[5mC]*eA*eA) [compound 771846]”: the “% Inhibition” value under setting [1] turned out to be 5%. As to “771599 (antisense eG*e[5mC]*eA*eG*eG*dA*dA*dG*dG*dG*dA*dA*dT*dA*dA*eG*eA*e[5mC]*eA*eA) [compound 771599]”, the “% inhibition of SMAD7 mRNA expression” value under setting [1] was 39%.

For the substance “771420 (eG*e[5mC]*e[5mC]*e[5mC]*eG*dG*dG*d[5mC]*d[5mC]*dG*d[5mC]*d[5mC]*dG*d[5mC]*d[5mC]*eA*e[5mC]*e[5mC]*eG*eG; antisense) [compound 771420]”, the “% Inhibition” value under setting [1] was found to be 54%. For the same substance, the “% inhibition of SMAD7 mRNA expression” value under setting [2] is recorded as 1%. For “771392 (antisense e[5mC]*eT*e[5mC]*e[5mC]*eG*dG*d[5mC]*dT*dG*d[5mC]*d[5mC]*d[5mC]*d[5mC]*dA*d[5mC]*e[5mC]*e[5mC]*e[5mC]*eG*e[5mC]) [compound 771392]”, the “% inhibition of SMAD7 mRNA expression” value under setting [3] is on record as 28%.

For “771855 (antisense eT*e[5mC]*e[5mC]*e[5mC]*eG*dA*d[5mC]*dT*dT*dT*dG*d[5mC]*dA*dA*dG*eA*eT*eG*eA*eA) [compound 771855]”, the “% Inhibition” value under setting [1] came out at 38%. Take “771951 (antisense e[5mC]*eT*eG*e[5mC]*eA*dG*dA*dG*d[5mC]*dA*d[5mC]*dA*dG*dA*dT*eG*e[5mC]*eA*eA*eA) [compound 771951]”: the “% Inhibition” value under setting [1] was 9%. Consider “771834 (antisense eA*eA*e[5mC]*eA*eT*dA*dA*dA*dG*dT*dT*d[5mC]*dT*d[5mC]*dA*eA*eA*e[5mC]*eA*eG) [compound 771834]”, for which, under setting [4], the “% inhibition of SMAD7 mRNA expression” value was found to be 25%. On to “771520 (antisense eA*eT*eG*eA*eA*dA*dA*dG*d[5mC]*dA*dA*dG*d[5mC]*dA*d[5mC]*eT*e[5mC]*eA*eG*eG) [compound 771520]”, for which the “% Inhibition of SMAD7 mRNA” value under setting [5] was found to be 37%. Moreover, the “% inhibition of SMAD7 mRNA expression” value under setting [4] is reported as 12%. As to “771588 (antisense eA*eG*eG*e[5mC]*e[5mC]*d[5mC]*dG*dT*dG*dT*d[5mC]*d[5mC]*dT*dT*dG*eA*eT*eG*eA*eG) [compound 771588]”, the “% inhibition of SMAD7 mRNA expression” value under setting [1] is 13%.

Regarding “771440 (e[5mC]*eG*eG*e[5mC]*eT*dG*d[5mC]*dG*d[5mC]*dA*dG*dG*d[5mC]*dT*dG*e[5mC]*eG*e[5mC]*eG*e[5mC]; antisense) [compound 771440]”, the “% Inhibition” value under setting [1] is on record as 48%. As to “771551 (antisense eA*eT*eT*eT*e[5mC]*dT*dG*d[5mC]*dT*dT*d[5mC]*d[5mC]*d[5mC]*d[5mC]*dT*e[5mC]*eT*eT*e[5mC]*e[5mC]) [compound 771551]”, the “% inhibition of SMAD7 mRNA expression” value under setting [1] stood at 18%.

Regarding “771766 (antisense e[5mC]*eT*eG*eA*eA*dG*d[5mC]*d[5mC]*d[5mC]*d[5mC]*d[5mC]*d[5mC]*dA*dA*dG*e[5mC]*e[5mC]*eA*eG*eG) [compound 771766]”, under setting [1], the “% Inhibition” value stood at 5%.

“771514 (antisense eT*eT*eA*eG*e[5mC]*dA*dG*d[5mC]*dA*dA*dA*dG*dT*dA*dG*eT*eT*eT*eG*eA) [compound 771514]”: under setting [4], the “% inhibition of SMAD7 mRNA expression” value is on record as 19%. In the case of “771433 (eT*e[5mC]*e[5mC]*eT*eT*d[5mC]*dA*dG*dT*dT*dT*d[5mC]*dT*dT*dG*eA*eG*e[5mC]*eA*e[5mC]; antisense) [compound 771433]”, under setting [5], the “% Inhibition of SMAD7 mRNA” value is given as 28%. Moreover, the “% inhibition of SMAD7 mRNA expression” value under setting [4] was 0%.

In the case of “771653 (antisense eT*eG*e[5mC]*eT*e[5mC]*dA*dT*dT*dG*dA*dG*d[5mC]*dT*dA*dA*eG*eA*eA*e[5mC]*eA) [compound 771653]”, the “% inhibition of SMAD7 mRNA expression” value under setting [3] came to 33%.

As usually defined, the % Inhibition is the change of the read-out against control, counted positive when it falls. A higher % Inhibition goes with a strong effect.
